Measured values from paper PMC12363342, “Investigating the N-terminal linker histone H1 subtypes as substrates for JmjC lysine demethylases” (RSC Chemical Biology, 2025).
Square brackets hold non-standard residues; d marks the D form. Ends that are not written are not given here. Lys(Me3) = C[N+](C)(C)CCCC[C@H](N)C(=O)O; Lys(Me2) = CN(C)CCCC[C@H](N)C(=O)O

Legend:
KDM3A = assay: LC-MS demethylation activity assay, KDM3A; type: biochemical, human; conditions: 2 μM KDM, 10 μM H1/H3 peptide, 10 μM FAS, 100 μM LAA, 20 μM 2OG, 50 mM HEPES pH 7.5, 2 h, room temperature
Description: (§1) The substrate specificity of JmjC KDMs for H1 was examined using liquid chromatography coupled to mass spectrometry (LC-MS) assays. The H1 peptides (10 μM) were incubated with the recombinant KDM (2 μM) in HEPES buffer at pH 7.5 at room temperature for 2 h, in the presence of ferrous(II) ammonium sulfate (FAS, 10 μM), sodium ascorbate (LAA, 100 μM) and 2OG (20 μM), and then quenched with formic acid. N^ε-Methylated H3K9 and H3K36 peptides were used as positive controls (Fig. 3–5 and Fig. S2–S6).[26]
(§2) The catalytic domains of the JmjC KDMs used were recombinantly produced as reported in either Escherichia coli (KDM4AM1-L359,[38] KDM4DM1-L359,[39] KDM4EM1-R336,[30] KDM6BD1141–E1590[40] and KDM3CL2157-L2500) or Sf9 cells (KDM3AT515–S1317, KDM3B882–1761, and KDM5DM1-D775) as N-terminally His6-tagged proteins. […] To produce proteins, DNA sequences encoding for KDM3A, KDM3B and KDM5D were inserted into the pFB-LIC vector, containing a TEV-protease cleavable N-terminal 6x-histidine tag via ligation independent cloning (LIC). The resultant plasmids were transformed into baculovirus and Sf9 cells ([…]) which were infected with the virus stock. The cells were grown at 27 °C and 90 rpm for 70 h. Cells were then harvested and suspended in 100 mL of lysis buffer (50 mM HEPES-NaOH, pH 7.4, 500 mM NaCl, 20 mM imidazole, 0.5 mM Tris (2-carboxyethyl)phosphine (TCEP), 5% (v/v) glycerol). […] The supernatant was loaded onto a Ni-NTA gravity column, washed with 10 column volume of lysis buffer and eluted using the elution buffer (50 mM HEPES-NaOH, pH 7.4, 500 mM NaCl, 300 mM imidazole, 0.5 mM TCEP, 5% (v/v) glycerol). The eluted protein was further purified using S200 gel filtration column chromatography (50 mM HEPES-NaOH, pH 7.4, 150 mM NaCl, 0.5 mM TCEP and 5% glycerol). Protein purity was analysed by SDS-PAGE and further confirmed by mass spectrometry. Selected fractions were pooled, concentrated and stored at −80 °C.
(§3) All reagents were purchased from Sigma Aldrich and were of the highest grade available. Ferrous(II) ammonium sulfate (FAS) solutions were prepared freshly by dissolving FAS to 400 mM in 20 mM HCl with subsequent dilution to 1 mM using deionized water. Fresh 2OG (10 mM) and LAA (50 mM) solutions were prepared by dissolving the solids in deionised water. All enzyme reactions were performed in 384-well plates (Greiner Bio-One) with a final reaction volume of 50 μL. Substrate mixtures contained 50 mM HEPES pH 7.5, LAA (100 μM), FAS (10 μM), 2OG (20 μM) and an H1 isoform peptide (10 μM). Reactions were initiated by the addition of enzyme to a final concentration of 2.0 μM. After 2 h, the reactions were stopped by the addition of 5 μL of 10% (v/v) LC-MS grade formic acid (Fisher Scientific) to a final concentration of 1% (v/v). Product analyses were performed by liquid chromatography-mass spectrometry (LC-MS) using an Agilent 1290 infinity II LC system equipped with an Agilent 1290 multisampler and an Agilent 1290 high speed pump and connected to an Agilent 6550 accurate mass iFunnel quadrupole time of flight (Q-TOF) mass spectrometer. 1 μL of the reaction mixture was injected onto a 1.8 μm × 2.1 × 50 mm ZORBAX RRHD Eclipse Plus C18 column (Agilent). Solvent A consisted of HPLC grade water containing 0.1% (v/v) formic acid and solvent B consisted of MeCN containing 0.1% (v/v) formic acid. Peptides were separated using a stepwise gradient (0 min – 95% solvent A, 1.0 min – 80% solvent A, 3.0 min – 45% solvent A, 4.0 min – 45% solvent A, 5.0 min – 0% solvent A, 6.0 min – 0% solvent A, 7.0 min – 95% solvent A). This was followed by a 3 min post-run with 95% solvent A to re-equilibrate the column. All flow rates were 0.2 mL min^−1. A blank injection of HPLC grade water was carried out between each sample injection.

KDM3B = assay: LC-MS demethylation activity assay, KDM3B; type: biochemical, human; conditions: 2 μM KDM, 10 μM H1/H3 peptide, 10 μM FAS, 100 μM LAA, 20 μM 2OG, 50 mM HEPES pH 7.5, 2 h, room temperature
Description: as §1, §2, §3

KDM3C = assay: LC-MS demethylation activity assay, KDM3C; type: biochemical, human; conditions: 2 μM KDM, 10 μM H1/H3 peptide, 10 μM FAS, 100 μM LAA, 20 μM 2OG, 50 mM HEPES pH 7.5, 2 h, room temperature
Description: as §1, §2, §3

KDM4A = assay: LC-MS demethylation activity assay, KDM4A; type: biochemical, human; conditions: 10 μM FAS, 100 μM LAA, 20 μM 2OG, room temperature; for substrate conversion (demethylation) by KDM4A: 2 μM KDM4A, 10 μM peptide, HEPES pH 7.5, 2 h
Description: as §1, §2, §3

KDM4D = target: T1, KDM4D (Homo sapiens, UniProt Q6B0I6); assay: LC-MS demethylation activity assay, KDM4D; type: biochemical; conditions: room temperature
T1 construct: KDM4AM1-L359,[38]; KDM4DM1-L359,[39]; KDM4EM1-R336,[30]; His6 (N); made in house; host or cells: Escherichia coli
T1 sequence (Q6B0I6 1-359): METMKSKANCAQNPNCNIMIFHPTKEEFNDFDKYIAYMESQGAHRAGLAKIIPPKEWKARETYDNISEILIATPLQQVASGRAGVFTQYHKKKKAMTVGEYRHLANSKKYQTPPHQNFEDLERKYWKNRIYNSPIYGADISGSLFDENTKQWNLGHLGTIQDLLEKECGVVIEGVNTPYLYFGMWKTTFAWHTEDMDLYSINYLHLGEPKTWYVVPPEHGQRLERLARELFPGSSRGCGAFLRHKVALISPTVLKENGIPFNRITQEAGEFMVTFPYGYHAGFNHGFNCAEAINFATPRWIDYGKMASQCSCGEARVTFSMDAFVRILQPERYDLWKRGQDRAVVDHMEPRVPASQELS
Description: as §1, §2, §3

KDM4E = target: T2, KDM4E (Homo sapiens, UniProt B2RXH2); assay: LC-MS demethylation activity assay, KDM4E; type: biochemical; conditions: 10 μM FAS, 100 μM LAA, 20 μM 2OG, room temperature; for substrate conversion (demethylation) by KDM4E: 2 μM KDM4E, 10 μM peptide, HEPES pH 7.5, 2 h
T2 construct: KDM4DM1-L359,[39]; KDM4EM1-R336,[30]; His6 (N); made in house; host or cells: Escherichia coli
T2 sequence (B2RXH2 1-336): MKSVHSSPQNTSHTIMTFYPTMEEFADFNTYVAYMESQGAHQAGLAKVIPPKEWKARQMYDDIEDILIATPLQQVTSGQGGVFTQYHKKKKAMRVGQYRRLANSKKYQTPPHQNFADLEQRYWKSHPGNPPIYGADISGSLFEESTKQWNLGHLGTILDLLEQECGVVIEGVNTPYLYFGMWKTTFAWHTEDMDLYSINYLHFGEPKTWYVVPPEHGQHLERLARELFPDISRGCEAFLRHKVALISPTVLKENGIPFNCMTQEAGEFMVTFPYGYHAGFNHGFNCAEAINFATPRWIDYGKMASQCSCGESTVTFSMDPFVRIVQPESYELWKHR
Description: as §1, §2, §3

KDM5D = assay: LC-MS demethylation activity assay, KDM5D; type: biochemical, human; conditions: 2 μM KDM, 10 μM H1/H3 peptide, 10 μM FAS, 100 μM LAA, 20 μM 2OG, 50 mM HEPES pH 7.5, 2 h, room temperature
Description: as §1, §2, §3

KDM6B = assay: LC-MS demethylation activity assay, KDM6B; type: biochemical, human; conditions: 2 μM KDM, 10 μM H1/H3 peptide, 10 μM FAS, 100 μM LAA, 20 μM 2OG, 50 mM HEPES pH 7.5, 2 h, room temperature
Description: as §1, §2, §3

[1] = T (tri-) initial methylation state
[2] = 2 μM KDM, 10 μM H1/H3 peptide, 50 mM HEPES pH 7.5, 2 h, T (tri-) initial methylation state
[3] = 2 μM KDM4D, 10 μM peptide, standard conditions, 2 h
[4] = D (di-) initial methylation state
[5] = 2 μM KDM, 10 μM H1/H3 peptide, 50 mM HEPES pH 7.5, 2 h, D (di-) initial methylation state
[6] = M (mono-) initial methylation state
[7] = 2 μM KDM, 10 μM H1/H3 peptide, 50 mM HEPES pH 7.5, 2 h, M (mono-) initial methylation state

KKKAK[Lys(Me3)]AGATAGKRK [Peptide H1.3K25me3, 15-mer linker histone H1.3 residues 20-34 peptide, tri-methylated K25]
KDM3A demethylation activity, T (KDM3A; [1]): ● [red] | KDM3B demethylation activity, T (KDM3B; [1]): ● [red] | KDM3C demethylation activity, T (KDM3C; [1]): ● [red] | substrate conversion (demethylation) by KDM4A (KDM4A): < 10% | KDM4A demethylation activity, T (KDM4A; [2]): ● [black] (black dots indicate low-level demethylation (<10% conversion)) | KDM4D demethylation activity, in words (KDM4D; [3]): No activity was observed | di-methylated product formed by KDM4D (KDM4D; [3]): < 5% | KDM4D demethylation activity, T (KDM4D; 2 μM KDM, 10 μM H1/H3 peptide, 10 μM FAS, 100 μM LAA, 20 μM 2OG, 50 mM HEPES pH 7.5, 2 h, T (tri-) initial methylation state): ● [red] | substrate conversion (demethylation) by KDM4E (KDM4E): < 10% | KDM4E demethylation activity, T (KDM4E; [2]): ● [black] (black dots indicate low-level demethylation (<10% conversion)) | KDM5D demethylation activity, T (KDM5D; [1]): ● [red] | KDM6B demethylation activity, T (KDM6B; [1]): ● [red]

KKKAR[Lys(Me2)]SAGAAKRKA [Peptide H1.4K25me2, 15-mer linker histone H1.4 residues 20-34 peptide, di-methylated K25]
KDM3A demethylation activity, D (KDM3A; [4]): ● [red] | KDM3B demethylation activity, D (KDM3B; [4]): ● [red] | KDM3C demethylation activity, D (KDM3C; [4]): ● [red] | substrate conversion (demethylation) by KDM4A (KDM4A): ~20% | KDM4A demethylation activity, D (KDM4A; [5]): ● [black] (black dots indicate low-level demethylation (<10% conversion)) | substrate conversion (demethylation) by KDM4D (KDM4D; 2 μM KDM4D, 10 μM peptide, 10 μM FAS, 100 μM LAA, 20 μM 2OG, HEPES pH 7.5, 2 h): > 40% | KDM4D demethylation activity, D (KDM4D; 2 μM KDM, 10 μM H1/H3 peptide, 10 μM FAS, 100 μM LAA, 20 μM 2OG, 50 mM HEPES pH 7.5, 2 h, D (di-) initial methylation state): ● [yellow] (yellow dots indicate moderate demethylation (<50% conversion)) | substrate conversion (demethylation) by KDM4E (KDM4E): ~50% | KDM4E demethylation activity, D (KDM4E; [5]): ● [red] | KDM5D demethylation activity, D (KDM5D; [4]): ● [red] | KDM6B demethylation activity, D (KDM6B; [4]): ● [red]

KKKATKKmeAAGAGAAK [Peptide H1.5K26me, 15-mer linker histone H1.5 residues 20-34 peptide, mono-methylated K26]
KDM3A demethylation activity, M (KDM3A; [6]): ● [red] | KDM3B demethylation activity, M (KDM3B; [6]): ● [red] | KDM3C demethylation activity, M (KDM3C; [6]): ● [red] | KDM4A demethylation activity, M (KDM4A; [7]): ● [red] | KDM4D demethylation activity, M (KDM4D; 2 μM KDM, 10 μM H1/H3 peptide, 10 μM FAS, 100 μM LAA, 20 μM 2OG, 50 mM HEPES pH 7.5, 2 h, M (mono-) initial methylation state): ● [red] | KDM4E demethylation activity, M (KDM4E; [7]): ● [red] | KDM5D demethylation activity, M (KDM5D; [6]): ● [red] | KDM6B demethylation activity, M (KDM6B; [6]): ● [red]
